Literature values as cited in patent US10190039B2, “Synthetic acid compositions alternatives to conventional acids in the oil and gas industry” (priority 2014, dated 2019).

Details: death in 2-3 minutes

For `Cl` [hydrogen chloride gas, hydrogen chloride], which “Level at which death can occur” value is on record?
The value was 1300-2000 ppm.
